Laboratory results from PubChem BioAssay AID1645864 (Buhrlage Lab, Dana-Farber Cancer Institute and Novartis …, 2021).
The source made the active and inactive calls.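 Rule for the calls: active = maximal inhibition of USP17 at or above 30% in the confirmation dose-response, a value not among the printed readouts; inactive = the rest.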

What follows are compounds tested against Ubiquitin carboxyl-terminal hydrolase 17-like protein 5 (Homo sapiens) (UniProt A8MUK1) (assay: ubiquitin-specific protease 17 inhibitors, concentration series, biochemical, verification of primary actives (AID 1645864)). Settings: purified USP17, ubiquitin-rhodamine cleavage fluorescence, 3 h.
Ubiquitin carboxyl-terminal hydrolase 17-like protein 5 (Homo sapiens), sequence (A8MUK1 whole entry, looked up): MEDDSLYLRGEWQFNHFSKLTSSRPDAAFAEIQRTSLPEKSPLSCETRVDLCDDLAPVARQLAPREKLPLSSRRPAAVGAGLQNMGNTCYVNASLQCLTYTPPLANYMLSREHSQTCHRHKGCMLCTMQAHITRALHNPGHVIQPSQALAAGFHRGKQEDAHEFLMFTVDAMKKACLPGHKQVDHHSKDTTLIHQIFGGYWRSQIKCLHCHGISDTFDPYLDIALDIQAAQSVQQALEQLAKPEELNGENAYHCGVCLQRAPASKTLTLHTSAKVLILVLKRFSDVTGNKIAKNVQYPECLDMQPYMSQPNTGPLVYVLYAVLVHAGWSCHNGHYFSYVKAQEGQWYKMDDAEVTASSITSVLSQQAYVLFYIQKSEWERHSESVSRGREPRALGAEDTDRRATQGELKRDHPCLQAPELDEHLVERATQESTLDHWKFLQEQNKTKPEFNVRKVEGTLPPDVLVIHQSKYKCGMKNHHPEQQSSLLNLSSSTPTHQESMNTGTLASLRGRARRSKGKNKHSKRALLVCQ

SMILES	IC50
COc1ccc2[nH]c3c(c2c1)CCN1C(=O)N(c2ccccc2C(=O)NCc2ccccc2)C(=O)[C@]31C	34.5 µM
COc1cc(COc2ccc3c(C)c(CC(=O)N4CC[C@@]5(O)CCCC[C@H]5C4)c(=O)oc3c2C)cc(OC)c1OC	38.9 µM
Cc1ccccc1Cn1cc(SCC(=O)Nc2ccc3c(c2)OCCO3)c2ccccc21	> 50 µM (inactive)
CC(=O)c1ccc(NC(=O)CC2C(=O)Nc3nc4ccccc4n32)cc1 (configuration not stated)	32.5 µM
COC(=O)c1cc(C#N)c(NCc2ccccc2)nc1C	13.4 µM
Cc1cc(O)c2c3c(c(O)cc2c1)C(=O)c1c(O)cccc1C3=O	0.407 µM
CC(C)(C)C(=O)C1C2C(=O)N(c3ccc4c(c3)OCO4)C(=O)C2C2c3ccccc3C=CN12 (configuration not stated)	> 50 µM (inactive)
c1coc(CNc2nc3ccccc3n3nnnc23)c1	> 50 µM (inactive)
Cc1cc(/C=C2/C(=N)N3C(c4ccccc4)=CSC3=NC2=O)c(C)n1-c1ccc2ccccc2c1	> 50 µM (inactive)
CCN(CC)c1nc(F)c2c(c1F)S(=O)(=O)CCN2Cc1cccnc1	> 50 µM (inactive)
Cc1ccc(Nc2nc(Nc3cccc(Cl)c3)nc3nccnc23)cc1	> 50 µM (inactive)
O=C(O)c1ccccc1C(=O)Nc1ccc(SC(C(=O)Nc2cccc(Cl)c2)c2ccccc2)cc1 (configuration not stated)	23.4 µM
Cc1ccccc1-c1noc(-c2ccccc2OCC(=O)NC(C)C)n1	> 50 µM (inactive)
NC(=O)c1ccc(NC(=O)Cc2cc(-c3ccc(Cl)cc3)on2)cc1	> 50 µM (inactive)
CS(=O)(=O)N1CCCc2cc(C(=O)Nc3ccc(Oc4ccccc4)cc3)ccc21	> 50 µM (inactive)
Cc1ccc(N2CC(c3nc4ccccc4n3CCCCOc3ccccc3)CC2=O)cc1 (configuration not stated)	> 50 µM (inactive)
Cc1nc(-c2cccc(NC(=O)c3ccccc3Cl)c2)no1	> 50 µM (inactive)
Cc1ccc(NC(=O)Cn2cc(S(=O)(=O)N3CCCC3)ccc2=O)cc1	19.5 µM
COc1ccccc1-c1ccc(SCC(=O)Nc2ccc3c(c2)OCCO3)nn1	> 50 µM (inactive)
Cc1nc(C(=O)NC2(O)C(=O)c3ccccc3C2=O)cs1	2.06 µM
CCCn1c(=O)n(CC(=O)c2ccccc2F)c2c(C(N)=O)nc(-c3ccco3)nc21	> 50 µM (inactive)
Cc1c(-c2nc(-c3ccccc3Cl)no2)nnn1-c1cccc(F)c1	6.66 µM
Fc1ccc(Oc2nc(CN3CCOCC3)nc3sc4c(c23)CCCC4)c(Cl)c1	> 50 µM (inactive)
Cc1ccccc1Cc1nc(-c2ccc(=O)[nH]c2)no1	> 50 µM (inactive)

SMILES	IC50
COc1cc(C(=O)Nc2ccc(-c3csc(C)n3)cc2)cc(OC)c1OC	> 50 µM (inactive)
Cc1ccc(-n2c(-c3ccccc3)cn3c4c(=O)[nH]c(=O)n(C)c4nc23)cc1C	0.289 µM
CCc1cc2c(=O)[nH]c(Cc3ccc(OC)cc3)nc2s1	22.5 µM
Nc1nc(OCc2ccccc2)c2[nH]c(/C=C/c3cccs3)nc2n1	32.5 µM
CCN(CCCNC(=O)c1ccc(Cn2c(=O)[nH]c3ccccc3c2=O)cc1)c1ccccc1	16 µM
CC(C)c1cc2c(c(O)c1O)[C@@]13CCCC(C)(C)[C@@H]1C[C@@H]2OC3=O	19.5 µM
CNC(=O)c1cc2c(=O)n3cccc(C)c3nc2n1Cc1ccccc1	2.36 µM
CCc1ccc2c(c1)[C@]1(C(=O)N2)[C@@H]2C(=O)N(c3ccc(Cl)cc3Cl)C(=O)[C@@H]2[C@@H]2CCCN21	> 50 µM (inactive)
COCCCNC(=O)c1ccc(Cn2c(=O)c3ccccc3n(CC(=O)NC3CCCCC3)c2=O)cc1	30.6 µM
CCCCCC(O)c1c(O)cc2c(c1O)C(=O)c1c(O)cc(O)cc1C2=O (configuration not stated)	> 50 µM (inactive)
Cc1ccc(C)c(S(=O)(=O)N2CCN(c3ccc4nnc(-c5ccco5)n4n3)CC2)c1	22.6 µM
COc1cc(N)c(Cl)cc1C(=O)OCC(=O)c1ccc2c(c1)OCCO2	> 50 µM (inactive)
O=C(Nc1nnc2n1CCCS2)c1cc2ccccc2o1	> 50 µM (inactive)
Cc1cccc(NC(=O)CSc2nnc(-c3n[nH]c4c3CCC4)n2N)c1C	18.1 µM
CCCCc1nc2sc3c(NCCN4CCOCC4)ncnc3c2c2c1CCC2	> 50 µM (inactive)
COc1c(O)cc(CC(=O)O)c(C(C)=O)c1O	11.1 µM
NS(=O)(=O)c1ccc(Cl)c(C(=O)OCc2csc(Nc3ccccc3)n2)c1	> 50 µM (inactive)
O=C(COC(=O)c1cc(Cl)ccc1O)Nc1ccc2c(c1)OCCO2	29.2 µM
O=C(NCc1cccnc1)C1CCN(c2cnc(N3CCCCCC3)nc2)CC1	> 50 µM (inactive)
O=C(CSc1nnc2n1CCCCC2)Nc1ccc2[nH]c(=O)[nH]c2c1	12 µM
Cc1ccc(NC(=O)C2CCN(c3cncnc3N3CCCC3)CC2)cc1	> 50 µM (inactive)
CC(OC(=O)c1ccc2c(c1)OCCO2)C(=O)NCC1CCCCC1 (configuration not stated)	30.1 µM
O=C(OC1CSc2nc3ccccc3n2C1)c1ccc([N+](=O)[O-])o1 (configuration not stated)	30.5 µM
COc1cc2c(cc1OC)C(COc1ccccc1OC)N(C(=O)c1ccc3ccccc3c1)CC2 (configuration not stated)	> 5 µM (inactive)

SMILES	IC50
COc1ccccc1Nc1ncc(C(=O)NCCc2ccc(Cl)cc2)c2ccccc12	4.16 µM
Cc1cc(=O)n(C)c2c(O)c3c(cc12)c(C)cc(=O)n3C	0.155 µM
c1ccc(Cc2nn3c(-c4cccnc4)nnc3c3ccccc23)cc1	0.42 µM
O=C(COC(=O)c1n[nH]c2ccccc12)Nc1ccc(N2CCCCC2)cc1	25.9 µM
O=C(CCc1ccc(S(=O)(=O)N2CCOCC2)cc1)Nc1ccc2c(c1)OCCO2	> 50 µM (inactive)
COc1ccc(Cl)cc1NC(=O)Cn1c(=O)cc(C)c2c(C)nn(-c3ccccc3)c21	5.81 µM
Cc1cccc(C)c1NC(=O)Cn1c(=O)n(CCCCC(=O)NCc2ccc3c(c2)OCO3)c(=O)c2ccccc21	2.23 µM
O=C(Nc1ccc(F)cc1)Nc1ccccc1OCc1cc(=O)n2ccccc2n1	28.7 µM
COc1cnc(CSc2ncccn2)cc1OCC(=O)Nc1cc(C)ccc1C	> 50 µM (inactive)
O=C(CSc1cn(Cc2ccccc2)c2ccccc12)Nc1ccc2c(c1)OCCO2	> 50 µM (inactive)
CC(=O)c1cccc(NC(=O)c2ccc(-c3csc(C)n3)cc2)c1	> 50 µM (inactive)
COc1cc(NC(=O)Cc2ccccc2)ccc1NC(=O)c1cc2ccccc2o1	9.82 µM
Cc1cccc(NC(=O)Cn2cnc(-c3noc(-c4ccccc4)n3)c2)c1C	1.35 µM
O=C(NCc1ccccc1)c1ccc(-c2ccc(N3CCCC3)nn2)cc1	> 50 µM (inactive)
O=C(Cc1ccc(Cl)c(Cl)c1)OCC(=O)c1c[nH]c2ccccc12	> 50 µM (inactive)
COc1ccc(C2/C(=C(\O)c3ccccc3)C(=O)C(=O)N2c2nc3ccc(F)cc3s2)cc1 (configuration not stated)	17.9 µM
CN1C(=O)[C@]23CC4=CC=C[C@H](O)[C@H]4N2C(=O)[C@@]1(CO)SS3	> 50 µM (inactive)
CC1=C(c2ccc(Cl)cc2)S(=O)(=O)NC1=NCC(=O)Nc1ccc(F)cc1	20.3 µM
O=C(Nc1ccccc1Br)c1ccn(COc2ccccc2F)n1	16.5 µM
O=C(Nc1ccc2c(c1)OCCO2)c1cc(CN2CCCC2)on1	> 50 µM (inactive)
CCN(CC(=O)Nc1cc(C)on1)c1cccc2ccccc12	> 50 µM (inactive)
CCN1C[C@@H]2C[C@]2(c2ccccc2OC)C(=O)c2ncccc21	> 50 µM (inactive)
Cc1cc(N2CCN(c3ncccn3)CC2)nc2ccc(NC(=O)c3ccncc3)cc12	2.99 µM
COc1ccc(C2SCC(=O)Nc3c2c(=O)[nH]n3C2CCCCCC2)cc1 (configuration not stated)	33.5 µM
